These results are taken from patent publication US6362226B1, “Modulation of in vivo glutamine and glycine levels in the treatment of autism” (Vanderbilt University, priority 1999, dated 2002).

The subject of this assay is autistic patients. Nature of the assay: Open-label dextromethorphan treatment of autistic patients B and F with elevated plasma glutamine and/or glycine, rated by treatment-blinded observers. Format: in vivo, human. From the text: Autistic patients were screened for elevated plasma levels of glutamine or glycine, or both. Five of 36 patients had elevated levels of either or both amino acids. One patient, “B”, had been diagnosed as having autism […] and 10 months. […] Further, B had elevated levels of glutamine in their cerebrospinal fluid, although their glycine levels were within the normal range. Their routine chemistry lab tests, including their urine organic acid profile, were normal. Patient “F” had persistent elevated glycine levels on multiple amino acid profiles which ranged from 324 to 439 μmol/L, where normal levels are from 120 to 315 μmol/L.
Both patients B and F were treated with dextromethorphan at 5 mg/kg body weight/day in the form of a cough and cold preparation sold under the registered trademark DELSYM® by McNeilLab, Inc. of Spring House, Pa., divided BID.
Example 1 discloses that 5/36 (14%) of children with autism have increased plasma levels of glutamine, glycine or both glutamine and glycine. In Example 1, an autistic patient with elevated glutamine and glycine and an autistic patient with glycine were treated with DM at 5 mg/kg body weight/day. […] The procedures of Example 1, however, were uncontrolled and open-label. In Example 2, treatment of children with autism with PB, SB or combinations of PB, SB and DM is systematically evaluated.

Take `COc1ccc2c(c1)[C@]13CCCC[C@@H]1[C@H](C2)N(C)CC3` [dextromethorphan]: for the setting “patients B and F”, the “response upon resumption of long-term dextromethorphan treatment” value was “responded as before and have continued to respond”. In addition, the “expressive and receptive language skills, attention span and focus, motor planning and socialization with peers” value (patients B and F, 5 mg/kg body weight/day divided BID as DELSYM, teachers and therapists blinded to treatment) was “significant improvement”. In addition, the “behavior after withdrawal of dextromethorphan treatment” value (patients B and F, treatment-blinded observers, all areas previously improved) is “regression in all of these areas of behavior measurement”. Also, the autistic behavior entry (two autistic patients, DM 5 mg/kg body weight/day, uncontrolled, open-label) was “clinical improvement”.
